Assays:
RCC4/VHL cells = assay: XTT assay, RCC4/VHL versus RCC4 cells (selectivity ratio); format: cell-based; settings: selectivity ratio, IC50 in RCC4/VHL cells/IC50 in RCC4 cells
Protocol: (§1) Cell Viability and XTT assays. For cell viability, 100,000 cells were plated in a 12-well plate. The following day, 1.25 μM STF-62247 was added in the presence or absence of 1 mM 3-MA for 24 hours at 37° C. Cells were trypsinized and counted by trypan blue exclusion. For XTT assays, 5000 RCC4 with and without VHL cells or 2,500 SN12C with and without VHL shRNA cells were plated in 96-well plates. The following day, vehicle (DMSO), STF-62247 or each of 19 analogs were added to media by serial dilution. Four days later, the media was aspirated and XTT solution containing 0.3 mg/ml of XTT (Sigma Chemical Co) in Phenol Red-free media, 20% FCS and 2.65 mg/ml N-methyl dibenzopyrazine methyl sulfate (PMS) was added to the cells and incubated at 37° C. for 1-2 hours. Metabolism of XTT was quantified by measuring the absorbance at 450 nm on a plate reader.
A. RCC4 and RCC4/VHL were treated with 1.25 μM of each 19 analogs for 20 hours and the presence of vacuoles was examined under light microscopy. B. Western blot for LC3 after treatment with each compound. Tubulin was used as loading control. Ratio is the relative from the IC50 in RCC4/VHL cells/IC50 in RCC4 cells. C. Acidic vesicle organelles (AVO) measured by FACS analysis in cells treated with 1.25 μM of STF-62247 or with compounds 21, 15, 25, 47, and 53 and stained with acridine orange.

RCC4 cells = assay: XTT assay in VHL-deficient RCC4 cells; format: cell-based; settings: Homo sapiens, 96 h, XTT assay, VHL-deficient RCC4 cells, four days
Protocol: as §1

Row | Structure (SMILES) | Ratio (RCC4/VHL cells; Table 2) | IC50 (RCC4 cells; Table 2) | Ratio (RCC4/VHL cells; Table 1) | IC50 (RCC4 cells; Table 1)
1 | C#Cc1cnccc1-c1csc(Nc2cccc(C)c2)n1 [Compound 184, 4-(3-Ethynyl-4-pyridinyl)-N-(3-methylphenyl)-1,3-thiazol-2-amine] | 4.4 | 1.35 µM | – | –
2 | CC(=O)c1cccc(Nc2nc(-c3ccncc3)cs2)c1 [Compound 125, 1-(3-{[4-(4-Pyridinyl)-1,3-thiazol-2-yl]amino}phenyl)ethanone] | – | – | >3.1 | 13 µM
3 | COC(=O)/C=C/c1sc(Nc2cccc(C)c2)nc1-c1ccncc1 [Compound 78, Methyl (2E)-3-[2-[(3-Methylphenyl)amino]-4-(4-pyridinyl)-1,3-thiazol-5-yl]-2-propenoate] | – | – | 2.8 | 2.5 µM
4 | C#Cc1cc(-c2csc(Nc3cccc(C)c3)n2)ccn1 [Compound 159, 4-(2-Ethynyl-4-pyridinyl)-N-(3-methylphenyl)-1,3-thiazol-2-amine] | >2.2 | 17.8 µM | – | –
5 | Fc1ccccc1Nc1nc(-c2ccncc2)cs1 [Compound 113, N-(2-Fluorophenyl)-4-(4-pyridinyl)-1,3-thiazol-2-amine] | – | – | >2.8 | 14.3 µM
6 | CCN(CC)Cc1sc(Nc2cccc(C)c2)nc1-c1ccncc1 [Compound 84, 5-[(Diethylamino)methyl]-N-(3-methylphenyl)-4-(4-pyridinyl)-1,3-thiazol-2-amine] | – | – | 1.4 | 13 µM
7 | Cc1cccc(Nc2nc(-c3ccnc(C#CCO)c3)cs2)c1 [Compound 161, 3-(4-{2-[(3-Methylphenyl)amino]-1,3-thiazol-4-yl}-2-pyridinyl)-2-propyn-1-ol] | 1.6 | 9.3 µM | – | –
8 | Cc1cccc(Nc2nc(-c3ccncc3)c(CN3CCOCC3)s2)c1 [Compound 86, N-(3-Methylphenyl)-5-(4-morpholinylmethyl)-4-(4-pyridinyl)-1,3-thiazol-2-amine] | – | – | 4.8 | 2.5 µM
9 | CC(C)c1cccc(Nc2nc(-c3ccncc3)cs2)c1 [Compound 9, N-(3-Isopropylphenyl)-4-(4-pyridinyl)-1,3-thiazol-2-amine] | – | – | 1.4 | 17 µM
10 | O=P(O)(O)Oc1ccc(Nc2nc(-c3ccncc3)cs2)cc1 [Compound 41, 4-{[4-(4-Pyridinyl)-1,3-thiazol-2-yl]amino}phenyl Dihydrogen Phosphate] | – | – | 6.3 | 3 µM
11 | CCc1cccc(Nc2nc(-c3ccncc3)cs2)c1 [Compound 7, N-(3-Ethylphenyl)-4-(4-pyridinyl)-1,3-thiazol-2-amine] | – | – | 9.6 | 2.5 µM
12 | Fc1ccc(Nc2nc(-c3ccncc3)cs2)cc1 [Compound 33, N-(4-Fluorophenyl)-4-(4-pyridinyl)-1,3-thiazol-2-amine] | – | – | >7 | 6 µM
13 | CN(C)CCOc1ccc(Nc2nc(-c3ccncc3)cs2)cc1 [Compound 29, N-{4-[2-(Dimethylamino)ethoxy]phenyl}-4-(4-pyridinyl)-1,3-thiazol-2-amine] | – | – | 1.3 | 60 µM
14 | Cc1cccc(Nc2nc(-c3ccncc3Br)cs2)c1 [Compound 178, 4-(3-Bromo-4-pyridinyl)-N-(3-methylphenyl)-1,3-thiazol-2-amine] | >10 | 3.9 µM | – | –
15 | Cc1cccc(Nc2nc(-c3ccnc(Br)c3)cs2)c1 [Compound 154, 4-(2-Bromo-4-pyridinyl)-N-(3-methylphenyl)-1,3-thiazol-2-amine] | >10 | 3.9 µM | – | –
16 | Cc1cccc(Nc2nc(-c3ccccn3)cs2)c1 [Compound 68, N-(3-Methylphenyl)-4-(2-pyridinyl)-1,3-thiazol-2-amine] | – | – | 0.9 | 37 µM
17 | Clc1ccc(Nc2nc(-c3ccncc3)cs2)cc1Cl [Compound 61, N-(3,4-Dichlorophenyl)-4-(4-pyridinyl)-1,3-thiazol-2-amine] | – | – | >3 | 13.5 µM
18 | Cc1cccc(Nc2nc(-c3cc(-c4ccccc4)nc4ccccc34)cs2)c1 [Compound 194, N-(3-Methylphenyl)-4-(2-phenyl-4-quinolinyl)-1,3-thiazol-2-amine] | >1.6 | 25.4 µM | – | –
19 | OCc1sc(Nc2ccccc2)nc1-c1ccncc1 [Compound 73, [2-(Phenylamino)-4-(4-pyridinyl)-1,3-thiazol-5-yl]methanol] | – | – | >1.3 | 30 µM
20 | Cc1cccc(Nc2nc(-c3cc(Cl)nc(Cl)c3)cs2)c1 [Compound 158, N-[4-(2,6-Dichloro-4-pyridinyl)-1,3-thiazol-2-yl]-N-(3-methylphenyl)amine] | 2.3 | 15 µM | – | –

Row | Structure (SMILES) | Ratio (RCC4/VHL cells; Table 2) | IC50 (RCC4 cells; Table 2) | Ratio (RCC4/VHL cells; Table 1) | IC50 (RCC4 cells; Table 1)
21 | FC(F)(F)c1ccc(Nc2nc(-c3ccncc3)cs2)cc1 [Compound 133, 4-(4-Pyridinyl)-N-[4-(trifluoromethyl)phenyl]-1,3-thiazol-2-amine] | – | – | – | > 40 µM
22 | Cc1cccc(Nc2nc(-c3ccnc(CCCO)c3)cs2)c1 [Compound 162, 3-(4-{2-[(3-Methylphenyl)amino]-1,3-thiazol-4-yl}-2-pyridinyl)-1-propanol] | >7.7 | 5.2 µM | – | –
23 | Clc1cccc(Nc2nc(-c3ccncc3)cs2)c1 [Compound 17, N-(3-Chlorophenyl)-4-(4-pyridinyl)-1,3-thiazol-2-amine] | – | – | 5 | 3 µM
24 | Cc1cccc(Nc2nc(-c3ccncc3C#CCO)cs2)c1 [Compound 186, 3-(4-{2-[(3-Methylphenyl)amino]-1,3-thiazol-4-yl}-3-pyridinyl)-2-propyn-1-ol] | 11.9 | 0.24 µM | – | –
25 | Cc1cccc(Nc2nc(-c3ccncc3)c(CCCN3CCOCC3)s2)c1 [Compound 82, N-(3-Methylphenyl)-5-[3-(4-morpholinyl)propyl]-4-(4-pyridinyl)-1,3-thiazol-2-amine] | – | – | 1.6 | 5.8 µM
26 | Cc1cccc(Nc2nc(-c3ccncc3[N+](=O)[O-])cs2)c1 [Compound 181] | 4.1 | 8.2 µM | – | –
27 | COc1ccccc1Nc1nc(-c2ccncc2)cs1 [Compound 109, N-(2-Methoxyphenyl)-4-(4-pyridinyl)-1,3-thiazol-2-amine] | – | – | >1.2 | 33.4 µM
28 | Cc1cccc(Nc2nc(-c3ccncc3)c(CN3CCCCC3)s2)c1 [Compound 85, N-(3-Methylphenyl)-5-(1-piperidinylmethyl)-4-(4-pyridinyl)-1,3-thiazol-2-amine] | – | – | 1.9 | 13 µM
29 | COc1cc(-c2csc(Nc3cccc(C)c3)n2)ccn1 [Compound 141, N-{4-[2-(Methyloxy)-4-pyridinyl]-1,3-thiazol-2-yl}-N-(3-methylphenyl)amine] | 1.2 | 28.7 µM | – | –
30 | CCN(c1cccc(C)c1)c1nc(-c2ccncc2)cs1 [Compound 96, N-Ethyl-N-(3-methylphenyl)-4-(4-pyridinyl)-1,3-thiazol-2-amine] | – | – | 0.6 | 40 µM
31 | Clc1ccccc1Nc1nc(-c2ccncc2)cs1 [Compound 115, N-[2-Chlorophenyl]-4-(4-pyridinyl)-1,3-thiazol-2-amine] | – | – | >1.4 | 27.6 µM
32 | Cc1cccc(Nc2nc(-c3ccncc3)c(C(=O)N(C)C)s2)c1 [Compound 92, N,N-Dimethyl-2-[(3-methylphenyl)amino]-4-(4-pyridinyl)-1,3-thiazole-5-carboxamide] | – | – | >2.5 | 16 µM
33 | Cc1cccc(Nc2nc(-c3ccncc3F)cs2)c1 [Compound 170, 4-(3-Fluoro-4-pyridinyl)-N-(3-methylphenyl)-1,3-thiazol-2-amine] | >20 | 2 µM | – | –
34 | Cc1cccc(Nc2nc(-c3ccncc3)c(CN(C)C)s2)c1 [Compound 83, 5-[(Dimethylamino)methyl]-N-(3-methylphenyl)-4-(4-pyridinyl)-1,3-thiazol-2-amine] | – | – | 2.3 | 16 µM
35 | Oc1ccccc1Nc1nc(-c2ccncc2)cs1 [Compound 107, 2-{[4-(4-Pyridinyl)-1,3-thiazol-2-yl]amino}phenol] | – | – | >3.1 | 12.8 µM
36 | Cc1sc(Nc2ccc3c(c2)CCC3)nc1-c1ccncc1 [Compound 72, N-(2,3-Dihydro-1H-inden-5-yl)-5-methyl-4-(4-pyridinyl)-1,3-thiazol-2-amine] | – | – | 1.5 | 12 µM
37 | Cc1ccc(Nc2nc(-c3ccncc3)cs2)cc1O [Compound 49, 2-Methyl-5-{[4-(4-pyridinyl)-1,3-thiazol-2-yl]amino}phenol] | – | – | 4.6 | 12 µM
38 | COc1ccc(Nc2nc(-c3ccncc3)cs2)cc1OC [Compound 55, N-(3,4-Dimethoxyphenyl)-4-(4-pyridinyl)-1,3-thiazol-2-amine] | – | – | 1.9 | 24 µM
39 | Oc1ccc(Nc2nc(-c3cccnc3)cs2)cc1 [Compound 66, 4-{[4-(3-Pyridinyl)-1,3-thiazol-2-yl]amino}phenol] | – | – | – | > 40 µM
40 | Cc1cccc(Nc2nc(-c3cccnc3)cs2)c1 [Compound 65, N-(3-Methylphenyl)-4-(3-pyridinyl)-1,3-thiazol-2-amine] | – | – | – | > 40 µM

From patent US20110105436A1, “HETEROARYL COMPOUNDS, COMPOSITIONS, AND METHODS OF USE IN CANCER TREATMENT” (AUCKLAND UNISERVICES LIMITED, priority 2008, published 2011)
